Source: patent US20100016288A1 (priority 2008, published 2010)

Molecular target: T1, alpha7 nicotinic acetylcholine receptor (Rattus norvegicus, UniProt Q05941)
T1 construct: expressed in transfected cells
Format: cell-based
Settings: agonist concentration-response 0.001 to 30 microM; rat alpha7 nAChR in GH4C1 cells; assay validation
Description: Rat GH4C1 cells were then transfected with the rat receptor, cloned and analyzed for functional alpha7 nicotinic receptor expression employing a FLIPR assay to measure changes in intracellular calcium concentrations. […] Three cell lines were then expanded and one characterised pharmacologically (see Table 2 below) prior to its subsequent use for compound screening.
The FLIPR system allows the measurements of real time Ca^2+-concentration changes in living cells using a Ca^2+ sensitive fluorescence dye (such as Fluo4). This instrument enables the screening for agonists and antagonists for alpha 7 nAChR channels stably expressed in GH4C1 cells.
GH4C1 cells stably transfected with rat-alphα7-nAChR (see above) were used. These cells are poorly adherent and therefore pretreatment of flasks and plates with poly-D-lysine was carried out. Cells are grown in 150 cm^2 T-flasks, filled with 30 ml of medium at 37° C. and 5% CO2.
EC50 and IC50 values were calculated using the IDBS XLfit4.1 software package employing a sigmoidal concentration-response (variable slope) equation:
The compounds were tested using the functional FLIPR primary screening assay employing the stable recombinant GH4C1 cell line expressing the alpha7 nAChR. Hits identified were validated further by generation of concentration-response curves.

T1 sequence (Q05941 23-502): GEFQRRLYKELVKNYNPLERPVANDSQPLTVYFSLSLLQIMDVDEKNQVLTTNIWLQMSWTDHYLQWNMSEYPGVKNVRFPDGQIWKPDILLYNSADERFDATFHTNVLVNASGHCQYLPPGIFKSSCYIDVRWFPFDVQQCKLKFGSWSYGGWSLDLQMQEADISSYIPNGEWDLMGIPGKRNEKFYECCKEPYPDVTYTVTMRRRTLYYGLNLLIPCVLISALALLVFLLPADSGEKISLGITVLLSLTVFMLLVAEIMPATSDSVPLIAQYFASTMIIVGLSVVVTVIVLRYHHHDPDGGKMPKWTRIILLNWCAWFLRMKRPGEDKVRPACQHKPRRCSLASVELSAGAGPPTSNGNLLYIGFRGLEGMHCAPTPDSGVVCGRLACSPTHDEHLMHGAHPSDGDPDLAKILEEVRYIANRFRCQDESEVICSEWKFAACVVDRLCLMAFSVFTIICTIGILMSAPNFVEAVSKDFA

C[N+]1(C)CCN(c2ccccc2)CC1 [DMPP]
EC50: 980 ± 470 nM
